Source: paper PMC6934184, “Selective DNA-PKcs inhibition extends the therapeutic index of localized radiotherapy and chemotherapy” (The Journal of Clinical Investigation, 2019)

Molecular target: T1, BMPR1A (ALK3) (Homo sapiens, UniProt P36894)
T1 construct: purchased Thermo Fisher Scientific (Life Technologies) SelectScreen
Experiment: SelectScreen LanthaScreen
Format: binding
Settings: read-out: % displacement
Method in brief: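 NU5455 was profiled across the SelectScreen Broad panel of kinase activity and binding assays. Z'LYTE reactions such as CSF1R ran at apparent Km ATP, while the Adapta CAMK1 assay used ATP listed as 10. Values are given as percent.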

T1 sequence (P36894 24-532): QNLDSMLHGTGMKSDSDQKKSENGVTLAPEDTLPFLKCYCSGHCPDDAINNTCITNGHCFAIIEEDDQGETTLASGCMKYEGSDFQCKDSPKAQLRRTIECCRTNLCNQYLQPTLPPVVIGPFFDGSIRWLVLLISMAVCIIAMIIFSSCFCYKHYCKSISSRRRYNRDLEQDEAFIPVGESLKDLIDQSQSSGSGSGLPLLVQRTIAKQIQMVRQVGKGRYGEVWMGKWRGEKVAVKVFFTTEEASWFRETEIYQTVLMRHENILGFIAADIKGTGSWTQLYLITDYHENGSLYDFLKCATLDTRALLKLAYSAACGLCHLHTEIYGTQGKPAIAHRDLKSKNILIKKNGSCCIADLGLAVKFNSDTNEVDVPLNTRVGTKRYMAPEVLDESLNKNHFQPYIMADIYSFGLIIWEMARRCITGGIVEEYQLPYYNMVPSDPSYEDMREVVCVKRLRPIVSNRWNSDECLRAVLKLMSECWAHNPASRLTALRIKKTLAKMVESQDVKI

CN(C(=O)CN1CCOCC1)c1ccc2sc3c(-c4cccc5c(=O)cc(N6CC7CCC(C6)O7)oc45)cccc3c2c1 [NU5455]
inhibition at 1 µM: -4.4%
